In brackets after ≈: the same amount, converted by molar mass. Read-outs that look alike come from different tables or passages of the source.
Tests used:
[1] = In vitro microsomal stability, rat liver microsomes; format: in vitro ADME; details: for microsomal CLint at […], 1 µM / half-life at 1 μM / microsomal CLint at 1 μM / half-life at […], 1 µM: pH 7.4, rat liver microsomes; for microsomal CLint at […], 1 µM / microsomal CLint at 1 μM: intrinsic clearance, read-out: Clint @ rLM; for half-life at 1 μM / half-life at […], 1 µM: rat, read-out: T1/2 @ rLM; for Rem. @ rLM (%): remaining fraction after 30 min, 1 μM compound, 0.5 mg/mL rat liver microsomes, 1 mM NADPH
Procedure: (§1) Compounds were incubated at a final concentration of 1 μM with 0.5 mg/mL human liver microsomes (hLM) (#HMMCPL; Thermo), mouse liver microsomes (mLM) (#MSMCPL; Thermo) or rat liver microsomes (rLM) (#RTMCPL; Thermo) and 1 mM reduced dihydronicotinamide-adenine dinucleotide phosphate (NADPH) (#N1630; Sigma) in 100 mM phosphate buffer (pH 7.4) at 37° C. The reactions were terminated at 0, 5, 15 and 30 min by the addition of cold acetonitrile containing 50 ng/mL propranolol as an internal standard. […] Verapamil hydrochloride (#V4369 Aldrich) was used as a positive control in all studies.

[2] = In vitro microsomal stability, mouse liver microsomes; format: in vitro ADME; details: for half-life at 1 μM / half-life at […], 1 µM: mouse, read-out: T1/2 @ mLM; for half-life at 1 μM / microsomal CLint at […], 1 µM / half-life at […], 1 µM / microsomal CLint at 1 μM: mouse liver microsomes, pH 7.4; for microsomal CLint at […], 1 µM / microsomal CLint at 1 μM: intrinsic clearance, read-out: Clint @ mLM; for Rem. @ mLM (%): remaining fraction after 30 min, 1 μM compound, 0.5 mg/mL mouse liver microsomes, 1 mM NADPH
Procedure: as §1

[3] = In vitro microsomal stability, human liver microsomes; format: in vitro ADME; details: for half-life at […], 1 µM / half-life at 1 μM: human, read-out: T1/2 @ hLM; for half-life at […], 1 µM / microsomal CLint at […], 1 µM / half-life at 1 μM / microsomal CLint at 1 μM: human liver microsomes, pH 7.4; for microsomal CLint at […], 1 µM / microsomal CLint at 1 μM: intrinsic clearance, read-out: Clint @ hLM; for Rem. @ hLM (%): remaining fraction after 30 min, 1 μM compound, 0.5 mg/mL human liver microsomes, 1 mM NADPH
Procedure: as §1

[4] = Kinetic solubility (nephelometry); format: physicochemical; details: aqueous buffer, kinetic from dmso stock; PBS pH 7.4, 1% DMSO, 1 hour at 37° C., light scattering at 625 nm
Procedure: Concentration (μM) was then calculated by segmental regression. Amiodarone (#A8423 Aldrich) was used as positive control.

CYP2C19 = CYP2C19 (Homo sapiens (Human), UniProt P33261); test: CYP inhibition in human liver microsomes; details: read-out: CYP-2C19; human liver microsomes; probe substrate mephenytoin
Procedure: (§2) CYP inhibition by test compounds in human liver microsomes (HLM) for seven major CYP450 isoforms CYP1A2, CYP2C9, CYP2D6, CYP2B6, CYP2C8, CYP2C19 and CYP3A4 were assessed. […] 50 μM phenacetin, 2 μM midazolam, 5 μM diclofenac, 50 μM mephenytoin, 80 μM bupropion, and 5 μM dextromethorphan were used as probe substrates of CYP1A2, CYP3A4, CYP2C9, CYP2C19, CYP2B6, and CYP2D6, respectively. The incubation times were 20 min for […], CYP2D6, CYP2C9, CYP2B6, and CYP2C8; 40 min for CYP2C19; and 10 min for CYP 3A4. Following incubations, the reactions were terminated with acetonitrile containing internal standard. The samples were centrifuged and the supernatants were analyzed for the formation of metabolites (1-hydroxymidazolam (CYP3A4), 4-hydroxydiclofenac (CYP2C9), 4-hydroxymephenytoin (CYP2C19) and dextrorphan (CYP2D6), hydroxybupropion (CYP2B6), acetaminophen (CYP1A2), desethylamodiaquine (CYP2C8)) by LC/MS/MS.

CYP3A4 = CYP3A4 (Homo sapiens (Human), UniProt P08684); test: CYP inhibition in human liver microsomes; details: read-out: CYP-3A4; human liver microsomes; probe substrate midazolam
Procedure: as §2

CYP2D6 = CYP2D6 (Homo sapiens (Human), UniProt P10635); test: CYP inhibition in human liver microsomes; details: read-out: CYP-2D6; human liver microsomes; probe substrate dextromethorphan
Procedure: as §2

CYP2B6 = CYP2B6 (Homo sapiens (Human), UniProt P20813); test: CYP inhibition in human liver microsomes; details: read-out: CYP-2B6; human liver microsomes; probe substrate bupropion
Procedure: as §2

CYP2C9 = CYP2C9 (Homo sapiens (Human), UniProt P11712); test: CYP inhibition in human liver microsomes; details: read-out: CYP-2C9; human liver microsomes; probe substrate diclofenac
Procedure: as §2

CYP2C8 = CYP2C8 (Homo sapiens (Human), UniProt P10632); test: CYP inhibition in human liver microsomes; details: read-out: CYP-2C8, metabolite desethylamodiaquine
Procedure: as §2

ATF6 = test: ERSE ATF6-luciferase reporter assay (thapsigargin-induced ER stress); format: cell-based, human; details: Homo sapiens, U2OS, thapsigargin-induced ER stress, U2-OS ATF6 luc reporter cells; for inhibition at 1 µM: 8 h, 8 hr
in vivo = details: Balb/c, mouse, po, 10 mg/kg
Procedure: (§3) Tested compounds were formulated at 1 mg/mL as a dosing solution for oral administration in vehicle A: 10% dimethylacetamide (DMAC), 20% propylene glycol, and 40% PEG-400 or vehicle B: 10% Kolliphor® EL and 10% ethanol (EtOH).
(§4) Animals were acclimated for a minimum period of 4 days upon arrival at the testing facility.
(§5) At the day of study, mice were weighed, identified by marking the tail with numbers using a non-toxic permanent marker, and designated into ten experimental groups (n=3 per group).
(§6) Non-dosed mice were used to collect samples of zero time points. […] Blood samples were centrifuged immediately at 9,000 g at 4° C. for 5 minutes and then plasmas were separated. Plasma samples were placed into individually labeled cryovials and stored in a −80° C. freezer until LC/MS/MS bioanalysis.
(§7) The bioanalysis of plasma samples was conducted with a QTRAP 4500 triple quadrupole mass spectrometer (Applied Biosystems SCIEX) in the positive ion mode and interfaced with an Ekspert Ultra LC100 UPLC System (Eksigent). Calibration standards (0.01 to 10 μM) and QCs (0.02, 0.2 and 2.0 μM) were prepared from naïve mouse plasma in parallel with mouse plasma study samples (60 μL) by precipitation with three volumes of ice cold internal standard solution (acetonitrile containing 20 μM of theophylline). The precipitated samples were centrifuged at 6,100 g for 30 min. Following centrifugation, an aliquot of each supernatant was transferred to an autosampler plate and diluted with two volumes of aqueous mobile phase (0.1% formic acid in water). Samples were injected onto a reverse phase analytical column (YMC Triart C18; 2.0×50 mm; 1.9 μm; YMC CO) and eluted with a gradient of 0.1% formic acid in Acetonitrile. Assayed test compound and internal standards were monitored by a multiple reaction monitoring (MRM) experiment using an Analyst software (v1.6.2, Applied Biosystems SCIEX). Quantitation was conducted using a MultiQuant software (v2.1, Applied Biosystems SCIEX) and the resulting calibration curve was fitted with a linear regression and 1/x weighting. The lower limits of quantitation were 1<LLQ <5 ng/mL.

[5] = mouse, in vivo, po, 10 mg/kg
Procedure: as §3, §4, §5, §6, §7

[6] = read-out: Inh. ATF6-Luc @ 1 μM [%], 1 μM test compound
[7] = read-out: IC50 ATF6-Luc reporter [μM], dose-response 30 μM to 1 nM
[8] = 1 μM test compound, read-out: Inh. ATF6-Luc @ 1 μM [%]
[9] = dose-response 30 μM to 1 nM, read-out: IC50 ATF6-Luc reporter

CYP2D6, sequence (P10635 whole entry): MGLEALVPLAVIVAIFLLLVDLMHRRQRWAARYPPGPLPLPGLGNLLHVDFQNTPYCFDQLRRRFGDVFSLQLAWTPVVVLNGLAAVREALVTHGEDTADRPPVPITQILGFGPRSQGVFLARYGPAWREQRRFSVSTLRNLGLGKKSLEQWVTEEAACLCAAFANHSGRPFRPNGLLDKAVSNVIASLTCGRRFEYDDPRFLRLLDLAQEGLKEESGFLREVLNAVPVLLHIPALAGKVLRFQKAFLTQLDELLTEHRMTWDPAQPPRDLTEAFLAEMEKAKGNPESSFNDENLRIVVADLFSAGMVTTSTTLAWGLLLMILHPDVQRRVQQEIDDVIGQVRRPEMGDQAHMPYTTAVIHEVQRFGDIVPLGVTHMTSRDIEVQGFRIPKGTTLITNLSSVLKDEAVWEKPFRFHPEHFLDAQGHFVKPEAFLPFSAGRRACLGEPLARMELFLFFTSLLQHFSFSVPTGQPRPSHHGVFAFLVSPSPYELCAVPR
CYP3A4, sequence (P08684 whole entry): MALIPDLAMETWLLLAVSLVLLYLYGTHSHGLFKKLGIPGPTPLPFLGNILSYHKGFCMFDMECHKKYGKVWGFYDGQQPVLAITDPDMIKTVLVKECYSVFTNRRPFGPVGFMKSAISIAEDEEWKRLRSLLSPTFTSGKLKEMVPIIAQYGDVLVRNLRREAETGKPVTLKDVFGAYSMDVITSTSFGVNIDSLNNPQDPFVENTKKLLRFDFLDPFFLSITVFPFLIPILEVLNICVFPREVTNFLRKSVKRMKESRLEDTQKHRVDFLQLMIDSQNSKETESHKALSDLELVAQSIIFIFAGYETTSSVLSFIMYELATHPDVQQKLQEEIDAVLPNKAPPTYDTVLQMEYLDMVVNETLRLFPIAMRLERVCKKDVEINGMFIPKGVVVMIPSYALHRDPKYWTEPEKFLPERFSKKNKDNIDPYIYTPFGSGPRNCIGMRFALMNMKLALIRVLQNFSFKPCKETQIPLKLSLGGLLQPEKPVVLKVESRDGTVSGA
CYP2C19, sequence (P33261 whole entry, canonical isoform): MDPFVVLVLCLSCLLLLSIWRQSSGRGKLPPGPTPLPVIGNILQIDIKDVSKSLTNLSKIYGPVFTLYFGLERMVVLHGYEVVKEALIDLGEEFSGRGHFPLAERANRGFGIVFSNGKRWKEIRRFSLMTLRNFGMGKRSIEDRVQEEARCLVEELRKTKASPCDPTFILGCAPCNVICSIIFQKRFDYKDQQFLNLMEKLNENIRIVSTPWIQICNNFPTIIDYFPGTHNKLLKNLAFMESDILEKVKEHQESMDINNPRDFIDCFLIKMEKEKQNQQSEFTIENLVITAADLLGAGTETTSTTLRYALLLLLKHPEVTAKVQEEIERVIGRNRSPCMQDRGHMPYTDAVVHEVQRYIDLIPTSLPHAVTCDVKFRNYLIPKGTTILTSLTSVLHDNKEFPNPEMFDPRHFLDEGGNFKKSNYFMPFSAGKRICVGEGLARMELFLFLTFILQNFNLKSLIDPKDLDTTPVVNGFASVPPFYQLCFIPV
CYP2B6, sequence (P20813 whole entry): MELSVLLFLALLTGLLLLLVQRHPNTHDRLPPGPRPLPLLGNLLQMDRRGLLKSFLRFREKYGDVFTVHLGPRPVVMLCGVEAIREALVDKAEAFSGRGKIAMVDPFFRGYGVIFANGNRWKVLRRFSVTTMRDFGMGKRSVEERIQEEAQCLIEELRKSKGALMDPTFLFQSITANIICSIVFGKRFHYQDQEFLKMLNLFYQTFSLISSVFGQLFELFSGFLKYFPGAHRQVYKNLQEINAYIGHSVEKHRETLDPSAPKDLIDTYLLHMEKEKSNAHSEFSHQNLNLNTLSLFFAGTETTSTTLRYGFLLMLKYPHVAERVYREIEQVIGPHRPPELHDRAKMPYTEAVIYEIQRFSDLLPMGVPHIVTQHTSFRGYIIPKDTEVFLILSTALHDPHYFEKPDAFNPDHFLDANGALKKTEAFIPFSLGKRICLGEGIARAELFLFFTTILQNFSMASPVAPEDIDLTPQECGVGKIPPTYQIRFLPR
CYP2C9, sequence (P11712 whole entry): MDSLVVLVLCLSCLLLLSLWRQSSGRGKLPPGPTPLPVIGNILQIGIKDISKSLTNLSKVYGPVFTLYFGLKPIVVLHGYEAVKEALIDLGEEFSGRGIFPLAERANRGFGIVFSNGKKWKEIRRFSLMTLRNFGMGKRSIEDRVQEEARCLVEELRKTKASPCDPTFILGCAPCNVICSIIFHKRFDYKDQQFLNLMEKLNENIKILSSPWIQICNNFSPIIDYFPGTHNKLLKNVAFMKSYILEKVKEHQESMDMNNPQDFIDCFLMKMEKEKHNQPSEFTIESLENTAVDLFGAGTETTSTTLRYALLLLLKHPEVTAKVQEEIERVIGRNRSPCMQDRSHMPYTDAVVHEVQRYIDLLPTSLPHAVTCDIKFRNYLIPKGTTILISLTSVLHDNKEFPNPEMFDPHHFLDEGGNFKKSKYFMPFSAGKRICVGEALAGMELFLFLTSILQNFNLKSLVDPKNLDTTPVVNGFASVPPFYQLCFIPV
CYP2C8, sequence (P10632 whole entry): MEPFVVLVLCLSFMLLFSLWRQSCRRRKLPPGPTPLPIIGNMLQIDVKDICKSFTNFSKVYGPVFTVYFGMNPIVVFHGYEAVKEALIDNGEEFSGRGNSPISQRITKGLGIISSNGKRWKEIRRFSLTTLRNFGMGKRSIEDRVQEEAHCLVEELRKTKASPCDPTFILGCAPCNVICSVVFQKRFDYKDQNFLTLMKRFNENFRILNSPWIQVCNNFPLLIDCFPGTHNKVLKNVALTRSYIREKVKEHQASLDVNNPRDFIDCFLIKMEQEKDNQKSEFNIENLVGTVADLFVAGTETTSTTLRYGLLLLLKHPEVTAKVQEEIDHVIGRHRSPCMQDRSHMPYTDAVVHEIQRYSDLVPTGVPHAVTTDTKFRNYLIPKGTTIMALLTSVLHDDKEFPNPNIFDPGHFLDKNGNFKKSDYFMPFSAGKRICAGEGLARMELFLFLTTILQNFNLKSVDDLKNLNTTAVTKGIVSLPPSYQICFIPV

| Structure (SMILES) | microsomal CLint at […], 1 µM [1] [µL/min/mg] | half-life at 1 μM [1] [h] | Rem. @ rLM (%) [1] [%] | half-life at 1 μM [2] [h] | microsomal CLint at […], 1 µM [2] [µL/min/mg] | Rem. @ mLM (%) [2] [%] | half-life at […], 1 µM [3] [h] | microsomal CLint at […], 1 µM [3] [µL/min/mg] | Rem. @ hLM (%) [3] [%] | solubility kinetic at 1 h [4] [µM] | IC50 (CYP2C19) [µM] | IC50 (CYP3A4) [µM] | IC50 (CYP2D6) [µM] | IC50 (CYP2B6) [µM] | IC50 (CYP2C9) [µM] | IC50 (CYP2C8) [µM] | IC50 (ATF6; [7]) [µM] | IC50 (ATF6; [9]) [µM] | inhibition at 1 µM (ATF6; [6]) [%] | inhibition at 1 µM (ATF6; [8]) [%] | further results |
| --- | --- | --- | --- | --- | --- | --- | --- | --- | --- | --- | --- | --- | --- | --- | --- | --- | --- | --- | --- | --- | --- |
| CN(C(=O)c1cc(-c2ccccn2)on1)c1cnn(Cc2ccc(C(F)(F)F)cc2C(F)(F)F)c1 [Compound 103, N-(1-(2,4-bis(trifluoromethyl)benzyl)-1H-pyrazol-4-yl)-N-methyl-5-(pyridin-2-yl)isoxazole-3-carboxamide] |  | 0.121 | 5.24 |  | 271 | 0.94 | 0.0897 | 258 | 2.1 | 9.37 (≈ 4.64 µg/mL) |  |  |  |  |  |  |  | 1 to 10 |  | 25 to 50 | microsomal CLint at 1 μM [1]: 191 µL/min/mg; half-life at […], 1 µM [2]: 0.0853 h |
| C[C@H](c1ccc(F)cc1C(F)(F)F)n1cc(NC(=O)c2cc(-c3ccccn3)on2)cn1 [Compound 110, (R)—N-(1-(1-(4-fluoro-2-(trifluoromethyl)phenyl)ethyl)-1H-pyrazol-4-yl)-5-(pyridin-2-yl)isoxazole-3-carboxamide] | 28.7 | 0.804 | 60.99 | 0.236 | 97.7 | 20.03 |  | 51.3 | 39.72 | 4.68 (≈ 2.08 µg/mL) |  |  |  |  |  |  |  | 1 to 10 |  | 25 to 50 | half-life at 1 μM [3]: 0.451 h |
| CCC(c1ccc(C(F)(F)F)cc1C(F)(F)F)n1cc(NC(=O)c2cc(-c3ccccn3)on2)cn1 (stereo not shown) [Compound 1, N-(1-(1-(2,4-bis(trifluoromethyl)phenyl)propyl)-1H-pyrazol-4-yl)-5-(pyridin-2-yl)isoxazole-3-carboxamide] |  | 0.54 | 51.8 | 0.585 |  | 54.8 |  |  | 71.4 | 2.7 (≈ 1.38 µg/mL) |  |  |  |  |  |  |  | < 1 |  | 25 to 50 | microsomal CLint at 1 μM [1]: 42.7 µL/min/mg; microsomal CLint at 1 μM [2]: 39.5 µL/min/mg; half-life at 1 μM [3]: 1.13 h; microsomal CLint at 1 μM [3]: 20.5 µL/min/mg |
| C[C@H](c1ccc(C(F)(F)F)cc1C(F)(F)F)n1cc(NC(=O)c2cnc(-c3ccccn3)s2)cn1 [Compound 104, (R)—N-(1-(1-(2,4-bis(trifluoromethyl)phenyl)ethyl)-1H-pyrazol-4-yl)-2-(pyridin-2-yl)thiazole-5-carboxamide] |  | 6.97 | 92.9 |  | 12.9 | 83.18 | 1.22 | 18.9 | 76.44 | 2.34 (≈ 1.2 µg/mL) |  |  |  |  |  |  | 1 to 10 |  | 25 to 50 |  | microsomal CLint at 1 μM [1]: 3.32 µL/min/mg; half-life at […], 1 µM [2]: 1.79 h |
| O=C(Nc1cnn(Cc2ccc(C(F)(F)F)cc2C(F)(F)F)c1)c1cc(-c2cccs2)on1 [Compound 14, N-(1-(2,4-bis(trifluoromethyl)benzyl)-1H-pyrazol-4-yl)-5-(thiophen-2-yl)isoxazole-3-carboxamide] | 314 |  | 0.85 | 0.123 | 187 | 5.62 |  | 43 | 50.1 | 35.2 (≈ 17.1 µg/mL) |  |  |  |  |  |  |  | < 1 |  | 25 to 50 | half-life at […], 1 µM [1]: 0.0733 h; half-life at 1 μM [3]: 0.535 h |
| C[C@H](c1ccc(C(F)(F)F)cc1C(F)(F)F)n1cc(NC(=O)c2cc(-c3cnccn3)on2)cn1 [Compound 131, (R)—N-(1-(1-(2,4-bis(trifluoromethyl)phenyl)ethyl)-1H-pyrazol-4-yl)-5-(pyrazin-2-yl)isoxazole-3-carboxamide] |  |  |  |  |  |  |  |  |  |  | 16.4 | > 50 | > 50 | 44.5 | > 50 | 43.3 | < 1 |  | > 50 |  | AUC(0-inf) (in vivo): 107 µg·h/mL; AUC(0-t) (in vivo): 98.7 µg·h/mL; Cmax (in vivo): 7030 ng/mL; Tmax (in vivo): 6 h; half-life (in vivo): 6.16 h; AUCExtr [%] ([5]; Balb/c): 7.75%; F [%] ([5]; Balb/c): 85.9%; Vz ([5]; Balb/c): 0.831 L/kg; Last time point for AUClast [5]: 24 h |

More lines, main results first:

| microsomal CLint at […], 1 µM [1] [µL/min/mg] | half-life at 1 μM [1] [h] | Rem. @ rLM (%) [1] [%] | half-life at 1 μM [2] [h] | microsomal CLint at […], 1 µM [2] [µL/min/mg] | Rem. @ mLM (%) [2] [%] | half-life at […], 1 µM [3] [h] | microsomal CLint at […], 1 µM [3] [µL/min/mg] | Rem. @ hLM (%) [3] [%] | solubility kinetic at 1 h [4] [µM] | IC50 (CYP2C19) [µM] | IC50 (CYP3A4) [µM] | IC50 (CYP2D6) [µM] | IC50 (CYP2B6) [µM] | IC50 (CYP2C9) [µM] | IC50 (CYP2C8) [µM] | IC50 (ATF6; [7]) [µM] | IC50 (ATF6; [9]) [µM] | Structure (SMILES) | inhibition at 1 µM (ATF6; [6]) [%] | inhibition at 1 µM (ATF6; [8]) [%] | further results |
| --- | --- | --- | --- | --- | --- | --- | --- | --- | --- | --- | --- | --- | --- | --- | --- | --- | --- | --- | --- | --- | --- |
| 23.9 | 0.968 | 64.5 | 0.873 | 26.4 | 62.5 | 2.22 | 10.4 | 84.4 | 3.51 (≈ 1.74 µg/mL) | 2.9 | > 50 | 35.5 | 23.6 | > 45.9 | 30.5 | < 1 |  | C[C@H](c1ccc(C(F)(F)F)cc1C(F)(F)F)n1cc(NC(=O)c2cn(-c3ccccn3)nn2)cn1 [Compound 121, (R)—N-(1-(1-(2,4-bis(trifluoromethyl)phenyl)ethyl)-1H-pyrazol-4-yl)-1-(pyridine-2-yl)-1H-1,2,3-triazole-4-carboxamide] | 25 to 50 |  |  |
| 7.2 |  | 86.4 |  | 10.9 | 82.6 | 2.32 | 10 | 84.4 | 28.1 (≈ 14.4 µg/mL) | > 50 | > 50 | > 50 | > 50 | > 50 | > 50 | < 1 |  | C[C@H](c1ccc(C(F)(F)F)cc1C(F)(F)F)n1cc(NC(=O)c2nnc(-c3cnccn3)s2)cn1 [Compound 152, (R)—N-(1-(1-(2,4-bis(trifluoromethyl)phenyl)ethyl)-1H-pyrazol-4-yl)-5-(pyrazin-2-yl)-1,3,4-thiadiazole-2-carboxamide] | > 50 |  | half-life at […], 1 µM [1]: 3.2 h; half-life at […], 1 µM [2]: 2.12 h |
| 12 |  | 84.5 | 1.04 |  | 67.9 |  |  | 68.0 |  | > 50 | > 50 | > 50 | > 50 | > 50 | > 50 | < 1 |  | O=C(Nc1cnn(Cc2ccc(C(F)(F)F)cc2C(F)(F)F)c1)c1cc(-c2ncccn2)on1 [Compound 129, N-(1-(2,4-bis(trifluoromethyl)benzyl)-1H-pyrazol-4-yl)-5-(pyrimidin-2-yl)isoxazole-3-carboxamide] | > 50 |  | half-life at […], 1 µM [1]: 1.9 h; microsomal CLint at 1 μM [2]: 22 µL/min/mg; half-life at 1 μM [3]: 1.05 h; microsomal CLint at 1 μM [3]: 22 µL/min/mg |
